From US5225411A, “Disubstituted polymethyleneimines” (priority 1990, dated 1993)

Experiments:
[1] = test system: Chinese Hamster Pulmonary Line DC-3F/AD; test: Increase in the cytotoxicity of actinomycin D on the Chinese hamster pulmonary line DC-3F/AD; type: cell-based; settings: 4 days;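 also: DC-3F/AD is an extremely resistant cell line whose resistance factor exceeds 10,000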
Description: The cytotoxic agent used was actinomycin D.
Line DC-3F/AD is an extremely resistant line. Its resistance factor is higher than 10,000.

[2] = test system: line DC-3F/AD; test: Flow cytometry, increase in fluorescence of ADR on the line DC-3F/AD; type: cell-based, Chinese Hamster; settings: ADR 50 μM, 5 h
Description: (§1) By measuring that fluorescence it is possible to obtain a relative measurement of the intracellular concentration of ADR.
(§2) […] After 5 hours' incubation, the intracellular uptake of adriamycin was evaluated by FCM.
(§3) The analysis of each of the samples was carried out on a total of 10,000 cells at a speed of 1000 cells/sec.
(§4) The results were presented in the form of linear histograms of the intracellular ADR fluorescence.
(§5) Expression of the Results
(§6) For each of the histograms, the channel mean fluorescence was determined by the apparatus information system. For all experiments:
(§7) A negative control (cells without ADR) fixed the autofluorescence threshold.
(§8) A positive control (cells with ADR) determined the MEAN value=MN1.
(§9) The "test" tubes (cells with ADR and with compound) were used to determine, for each of the compounds and at each of the concentrations, the MEAN values=MN2.
(§10) The results are expressed in the form of variations from the mean fluorescence obtained for each of the "test" tubes (MN2) in relation to the mean fluorescence obtained with the […] (MNl) : VAR-MEAN=MN2 -MN1. The parameter expressed is thus the increase in the fluorescence of adriamycin in the presence of the tested compounds.

[3] = test system: murine leukaemia P 388/ADR 10; test: Evaluation of the increase in cytotoxicity of adriamycin on the line P 388/ADR-10 in vitro (reversion factor); type: cell-based; settings: adriamycin, P 388/ADR-10, 48 h, TOX = toxic
Description: In this study, the cytotoxicity of adriamycin was measured in the absence and in the presence of the reversing compound.
The compounds tested for their capacity to reverse MDR are added at the same time as the cytotoxic agent. The cells are then incubated for 48 hours.

[4] = test system: line P 388/ADR 10; test: Flow cytometry, increase in fluorescence of ADR on the line P 388/ADR 10; type: cell-based, murine; settings: ADR 50 μM, 5 h
Description: as §1, §2, §3, §4, §5, §6, §7, §8, §9, §10

| SMILES | Reversion Factor (RF) ([1]; compound 5 μM) | Reversion Factor (RF) ([1]; compound 10 μM) | Increase in fluorescence of ADR (VAR-MEAN = MN2 - MN1) ([2]; compound 2 μM) | Increase in fluorescence of ADR (VAR-MEAN = MN2 - MN1) ([2]; compound 5 μM) | Increase in fluorescence of ADR (VAR-MEAN = MN2 - MN1) ([2]; compound 10 μM) | Increase in fluorescence of ADR (VAR-MEAN = MN2 - MN1) ([2]; compound 20 μM) | Reversion Factor (RF) ([3]; compound 2.5 μM) | Reversion Factor (RF) ([3]; compound 5 μM) | Reversion Factor (RF) ([3]; compound 10 μM) | Increase in fluorescence of ADR (VAR-MEAN = MN2 - MN1) ([4]; compound 2 μM) | Increase in fluorescence of ADR (VAR-MEAN = MN2 - MN1) ([4]; compound 5 μM) | Increase in fluorescence of ADR (VAR-MEAN = MN2 - MN1) ([4]; compound 10 μM) | Increase in fluorescence of ADR (VAR-MEAN = MN2 - MN1) ([4]; compound 20 μM) | Reversion Factor (RF) ([1]; compound 2.5 μM) | Reversion Factor (RF) ([1]; compound 20 μM) |
| --- | --- | --- | --- | --- | --- | --- | --- | --- | --- | --- | --- | --- | --- | --- | --- |
| C=CCNc1nc(NCCC)nc(N2CCC(NCC(c3ccccc3)c3ccccc3)CC2)n1 [Example 7, 1-(4-propylamino-6-allylamino-2-s-triazinyl)-4-(2,2-diphenylethylamino)piperidine] | 992 | 2339 | 14.47 | 26.0 | 34.17 | 36.63 | 102.8 | 135.6 | TOX | 48.75 | 72.6 | 80.9 | 87.3 | – | – |
| C=CCNc1nc(NCCC)nc(N2CCC(NCCC(c3ccccc3)c3ccccc3)CC2)n1 [Example 8, 1-(4-propylamino-6-allylamino-2-s-triazinyl)-4-(3,3diphenylpropylamino)piperidine] | TOX | TOX | 4.5 | 17.85 | 27.15 | TOX | 75.9 | TOX | TOX | 38.9 | 60.1 | TOX | TOX | 16.5 | TOX |
| C=CCNc1cc(N2CCC(NCCC(c3ccccc3)c3ccccc3)CC2)nc(NCC=C)n1 [Example 9, 1-(bis-2,4-allylamino-6-pyrimidinyl)-4-(3,3-diphenylpropylamino)piperidine] | 472 | TOX | 7.2 | 15.1 | 16.3 | 26.2 | 80.4 | TOX | TOX | 39.2 | 55.8 | 65.8 | TOX | 94 | – |
| C=CCNc1nc(NCC=C)nc(N2CCC(NCC(c3cc(OC)cc(OC)c3)c3ccccc3C)CC2)n1 (centres unmarked) [Example 10, 1-[4,6-bis(allylamino)-2-s-triazinyl]-4-[2-(3,5-dimethoxyphenyl)-2-(2-methylphenyl)ethylamino]piperidine] | 1347 | TOX | 14.8 | 24.7 | 26.5 | 28.2 | 125.1 | 75.3 | TOX | 52.0 | 75.3 | 84.0 | 78.0 | 259 | – |
| C=CCNc1nc(NCC=C)nc(N2CCC(NCCC(c3ccc(OC)c(OC)c3)c3ccc(OC)c(OC)c3)CC2)n1 [Example 12, 1-[4,6-bis(allylamino)-2-s-triazinyl]-4-[3,3-bis(3,4-dimethoxyphenyl)propylamino]piperidine] | < 16.5 | < 16.5 | 6.1 | 3.8 | 5.5 | 9.6 | 1.4 | 8 | TOX | – | – | – | – | – | – |
